{"source": "patent US10603345B2", "about": "“Pharmaceutical composition for treating respiratory disease” (Kunming Institute of Botany, The Chinese Academy of Sciences, priority 2015, dated 2020)", "assay_type_in_all_cases": "in vivo", "key": {"[1]": {"test_system": "SOD in serum and homogenate of pulmonary fibrosis model mouse", "experiment": "Effect on SOD in serum and homogenate of pulmonary fibrosis model mouse", "conditions": "bleomycin pulmonary fibrosis mouse, ig 28 d, dose/kg: prednisone acetate 5 mg, Test group 1 50, 2 25, 3 12.5, picrinine 5.0, vallesamine 3.0, scholaricine 3.5, 19-epi-scholaricine 1.0 mg, x ± SD", "protocol": "(§1) Animal source: 30˜35 g male ICR mouse, from laboratory animal department of Kunming Medical University, License No. SCXK (Dian) 2011-0004.\n(§2) Method and route: bleomycin was used to induce mouse pulmonary fibrosis, and after intragastrical administration for 28 d at a dose of 20 mL/kg, the animal was sacrificed at the 29th day.\n(§3) Group and dose: Sham group, Model group, Positive control group, prednisone acetate (5 mg/kg) group, Test group 1: picrinine, vallesamine, scholaricine and 19-epischolaricine prepared in Example 1.7 were mixed at different ratios by weight (50 mg/kg), Test group 2: the alkaloid composition (25 mg/kg) prepared in Example 1.5, Test group 3: the alkaloid composition (12.5 mg/kg) prepared in Example 1.6, Picrinine group (5.0 mg/kg), Vallesamine group (3.0 mg/kg), Scholaricine group (3.5 mg/kg), and 19-epischolaricine group (1.0 mg/kg).\n(§4) Positive control drug: prednisone acetate tablet, Approval number: H33021207, 5 mg/tablet, produced by Zhejiang Xianju Pharmaceutical Co., Ltd., Batch No. 140146.\n(§5) Sample preparation: all the samples were prepared by using 0.5% carboxymethylcellulose sodium (0.5% CMC-Na).\nGroup and dose: in Test group 1, the ratio of picrinine, vallesamine, scholaricine and 19-epischolaricine by weight was 10:7:7:2, and the other groups and doses thereof were as described in Example 12.\nTest index: SOD in serum and homogenate was used as index, and was determined by xanthine oxidase method."}, "[2]": {"test_system": "KL-6 in serum of pulmonary fibrosis model mouse", "experiment": "Effect on KL-6 in serum of pulmonary fibrosis model mouse", "conditions": "ELISA, bleomycin pulmonary fibrosis mouse, ig 28 d, dose/kg: prednisone acetate 5 mg, Test group 1 50, 2 25, 3 12.5, picrinine 5.0, vallesamine 3.0, scholaricine 3.5, 19-epi-scholaricine 1.0 mg, x ± SD", "protocol": "as §1, §2, §3, §4, §5\nGroup and dose: in Test group 1, the ratio of picrinine, vallesamine, scholaricine and 19-epischolaricine by weight was 45:38:30:8, and the other groups and doses thereof were as described in Example 12.\nTest index: KL-6 in serum was used as index, and was determined by enzyme linked immunosorbent assay."}, "[3]": {"test_system": "MDA in serum and homogenate of pulmonary fibrosis model mouse", "experiment": "Effect on MDA in serum and homogenate of pulmonary fibrosis model mouse", "conditions": "bleomycin pulmonary fibrosis mouse, ig 28 d, dose/kg: prednisone acetate 5 mg, Test group 1 50, 2 25, 3 12.5, picrinine 5.0, vallesamine 3.0, scholaricine 3.5, 19-epi-scholaricine 1.0 mg, x ± SD", "protocol": "as §1, §2, §3, §4, §5\nGroup and dose: in Test group 1, the ratio of picrinine, vallesamine, scholaricine and 19-epischolaricine by weight was 8:5:5:1, and the other groups and doses thereof were as described in Example 12.\nTest index: MDA in serum and homogenate was used as index, and was determined by thiobabituric acid method."}, "[4]": {"test_system": "Hyp in homogenate of pulmonary fibrosis model mouse", "experiment": "Effect on Hyp in homogenate of pulmonary fibrosis model mouse", "conditions": "bleomycin pulmonary fibrosis mouse, ig 28 d, dose/kg: prednisone acetate 5 mg, Test group 1 50, 2 25, 3 12.5, picrinine 5.0, vallesamine 3.0, scholaricine 3.5, 19-epi-scholaricine 1.0 mg, x ± SD", "protocol": "as §1, §2, §3, §4\n(§6) Sample preparation: all the samples were prepared by using 0.5% carboxymethylcellulose sodium (0.5% CMC-Na). […]\nTest index: Hyp in homogenate was used as index, and was determined by enzyme linked immunosorbent assay."}, "[5]": {"test_system": "Col-1 in homogenate of pulmonary fibrosis model mouse", "experiment": "Effect on Col-1 in homogenate of pulmonary fibrosis model mouse", "conditions": "ELISA, bleomycin pulmonary fibrosis mouse, ig 28 d, dose/kg: prednisone acetate 5 mg, Test group 1 50, 2 25, 3 12.5, picrinine 5.0, vallesamine 3.0, scholaricine 3.5, 19-epi-scholaricine 1.0 mg, x ± SD", "protocol": "as §1, §2, §3, §4, §5\nGroup and dose: in Test group 1, the ratio of picrinine, vallesamine, scholaricine and 19-epischolaricine by weight was 20:17:17:4, and the other groups and doses thereof were as described in Example 12.\nTest index: Col-1 in homogenate was used as index, and was determined by enzyme linked immunosorbent assay."}, "[6]": {"test_system": "LDH in serum of pulmonary fibrosis model mouse", "experiment": "Effect on LDH in serum of pulmonary fibrosis model mouse", "conditions": "bleomycin pulmonary fibrosis mouse, ig 28 d, dose/kg: prednisone acetate 5 mg, Test group 1 50, 2 25, 3 12.5, picrinine 5.0, vallesamine 3.0, scholaricine 3.5, 19-epi-scholaricine 1.0 mg, x ± SD", "protocol": "as §1, §2, §3, §4, §6\nTest index: LDH in serum was used as index, and was determined by 2, 4-dinitrophenylhydrazine method."}}}
{"compound": "CC(=O)OCC(=O)[C@@]1(O)CC[C@H]2[C@@H]3CCC4=CC(=O)C=C[C@]4(C)[C@H]3C(=O)C[C@@]21C", "note": "[prednisone acetate, reference compound]", "values": [{"measurement": "SOD homogenate", "setting": "[1]; homogenate", "value": "60.0 ± 15.9", "unit": "U/mg prot"}, {"measurement": "SOD Serum", "setting": "[1]; serum", "value": "15.5 ± 3.8", "unit": "U/mg prot"}, {"measurement": "KL-6", "setting": "[2]", "value": "3.00 ± 1.00", "unit": "U/mg prot"}, {"measurement": "MDA Homogenate", "setting": "[3]; homogenate", "value": "19.0 ± 6.6", "unit": "nmol/mg prot"}, {"measurement": "MDA Serum", "setting": "[3]; serum", "value": "0.55 ± 0.17", "unit": "nmol/mg prot"}, {"measurement": "Hyp", "setting": "[4]", "value": "2.9 ± 0.8", "unit": "μg/g prot"}, {"measurement": "Col-1", "setting": "[5]", "value": "6.0 ± 2.1", "unit": "μg/g prot"}, {"measurement": "LDH", "setting": "[6]", "value": "10.5 ± 3.4", "unit": "U/g prot"}]}
